What was measured:
[1] = tested on: LPS-induced TNFα in monocyte-derived macrophages (MdM); test: MdM assay: LPS-triggered TNFα (ELISA); type: cell-based; settings: Homo sapiens, Macrophage, LPS 200 ng/mL, supernatant after 20 h
Experimental: SIK inhibition inhibits TNFα and increases IL-10 release in LPS triggered monocyte-derived macrophages (MdM) and dendritic cells (MdDCs) (Clark et al. 2012; Sundberg et al. 2014; Ozanne et al. 2015). This assay evaluates illustrative compounds of the invention for their inhibition of LPS-induced TNFα and LPS triggered IL-10 secretion in monocyte-derived macrophages.
PBMCs are isolated from human blood samples (buffycoats). The buffy coat is aseptically transferred into a 50 mL Falcon tube, and diluted ½ in PBS. Falcon tubes are filled with 20 mL Lymphoprep™, on top of which 25 mL of the buffy coat is carefully added, tubes are centrifuged for 35 min at 400 g in temperature controlled centrifuge, without brake, at 25° C. PBMCs are aspirated from the white interface layer between sample and Lymphoprep™. PBMCs are washed five times in PBS. Cells are resuspended in RPMI 1640 complete medium supplemented with 10% FBS, 1% P/S, and cell density is determined using a hematologic analyzer (Sysmex XS-500i).
PBMCs are centrifuged at 300×g for 10 min and resuspended at a density of 1.0*10^7 cells/80 μL Miltenyi buffer (PBS, pH 7.4, 1% FBS, 2 mM EDTA).
Starting from this point of the protocol all steps are performed on ice. 20 μL of CD14+ micro-beads are added per 1.0*10^7 cells, the tube is mixed and incubated for 15 min in the fridge at 4° C. Cell suspension volume is adjusted to total volume of 100 mL using Miltenyi buffer, mixed gently and subsequently centrifuged for 10 min at 300×g. Supernatant is discarded and cell pellet is resuspended in 12 mL of Miltenyi buffer.
Four LS columns are placed in the MACS Separator (magnet) from Miltenyi Biotec, and are prewet by rinsing with 3 mL of MACS buffer per column. […]
The columns are removed from the magnets, and 5 mL of Miltenyi buffer are added to the column to flush out the CD14+ fraction by pushing the plunger into the column. […] The obtained cell pellet is resuspended in 10 mL RPMI w/o FBS, and cell density is determined using a hematologic analyser (Sysmex XS-500i). […]

SIK1 = target: T1, SIK1 (Homo sapiens, UniProt P57059); test: ADP-Glo kinase assay, SIK1; type: biochemical; settings: AMARA peptide 45 μM, 5 μM ATP, 120 min, read-out: SIM1 IC50
T1 construct: purchased Carna Biosciences 02-131
Description: The ADP-Glo™ kinase assay is a luminescent technology assay which measures the ADP formed from a kinase reaction. In this specific study, the kinase reactions consisted of the phosphorylation of the AMARA peptide substrate (SignalChem, Cat #A11-58) by SIK1 (Carma Biosciences, Cat #02-131), SIK2 (ThermoFisher Scientific, Cat #PV4792) or SIK3 (SignalChem, Cat #S12-11G-100). In a second step the kinase reactions are terminated and all the remaining ATP is depleted. In a final step the ADP is converted into ATP and this newly synthesized ATP is measured by using a luciferase/luciferin reaction. The generated light is measured using an Envision plate reader, wherein the luminescent signal obtained positively correlates with the kinase activity.
The test compounds are prepared as a serial dilution of 10 point dose responses with ⅕ dilution steps in 100% DMSO starting from 2 mM highest concentration, diluted 1/20 in water and […] is transferred to the assay plates (PerkinElmer Inc., Cat #6007290).
1% DMSO and 10 μM staurosporine final concentrations are used as negative and positive controls.
2 μL enzyme-substrate mixture is added to the assay plates.
The reaction is started by adding 2 μL diluted ATP on the assay plates. Plates are centrifuged for a few seconds at 1000 rpm and gently shaken for 2 min followed by an incubation at RT for 120 min.
The reactions are stopped and the unconsumed ATP is depleted by adding 5 μL ADP-Glo Reagent (Promega, Cat #V9121B) to the reaction. The plates are centrifuged for a few seconds at 1000 rpm and incubated at RT for […] (ATP depletion).
The ADP is converted to ATP and luciferase and luciferin is introduced to detect ATP by adding 10 μL Kinase Detection Reagent (Promega, Cat #V913B+V914r) to the reaction. The plates are centrifuged for a few seconds at 1000 rpm and incubated at RT for 30 min (ADP detection).
Luminescence is measured on an Envision plate reader (PerkinElmer Inc.).
Raw data are generated following the read-out performed on the TopCount, plotted to generate dose response curves to calculate percentage inhibition (PIN) and average IC50 for each SIK homologue which are reported in the table below.

T1 sequence (P57059 whole entry): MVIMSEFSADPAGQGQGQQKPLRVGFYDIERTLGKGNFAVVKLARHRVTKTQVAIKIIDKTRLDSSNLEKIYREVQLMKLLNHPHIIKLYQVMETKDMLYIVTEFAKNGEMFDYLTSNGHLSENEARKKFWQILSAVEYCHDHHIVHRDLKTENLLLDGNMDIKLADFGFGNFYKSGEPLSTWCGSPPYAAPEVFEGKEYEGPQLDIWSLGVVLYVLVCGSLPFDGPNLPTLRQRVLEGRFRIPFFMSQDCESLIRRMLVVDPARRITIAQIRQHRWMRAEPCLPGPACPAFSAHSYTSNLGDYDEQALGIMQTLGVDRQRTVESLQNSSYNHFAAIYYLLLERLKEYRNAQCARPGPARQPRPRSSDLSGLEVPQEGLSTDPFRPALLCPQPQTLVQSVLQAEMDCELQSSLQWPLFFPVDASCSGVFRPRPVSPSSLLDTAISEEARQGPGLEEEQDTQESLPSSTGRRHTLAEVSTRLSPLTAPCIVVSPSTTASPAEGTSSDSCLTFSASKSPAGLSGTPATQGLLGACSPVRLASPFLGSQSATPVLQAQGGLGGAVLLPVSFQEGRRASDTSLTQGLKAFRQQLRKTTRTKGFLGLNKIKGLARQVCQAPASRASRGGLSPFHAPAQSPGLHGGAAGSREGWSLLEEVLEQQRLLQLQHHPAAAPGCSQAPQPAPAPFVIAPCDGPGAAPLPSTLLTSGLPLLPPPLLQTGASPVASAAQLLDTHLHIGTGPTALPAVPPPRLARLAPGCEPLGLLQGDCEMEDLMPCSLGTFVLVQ

| EC50 [1] | IC50 (SIK1) | SMILES |
| --- | --- | --- |
| 100 to 1000 nM | 100 to 500 nM | COc1cc(-c2cnn3cc(OCCN4CCOCC4)ccc23)cc2c1C(=O)N(CC(F)(F)F)CC2 [Cpd 1, 8-methoxy-6-[6-(2-morpholinoethoxy)pyrazolo[1,5-a]pyridin-3-yl]-2-(2,2,2-trifluoroethyl)-3,4-dihydroisoquinolin-1-one] |
| 100 to 1000 nM | > 500 nM | COc1cc(-c2cnn3cc(OC(C)(C)CO)ccc23)cc(OC(F)F)c1C(=O)N[C@@H]1C[C@@H]1F [Cpd 2, 2-(difluoromethoxy)-N-[(1R,2S)-2-fluorocyclopropyl]-4-[6-(2-hydroxy-1,1-dimethyl-ethoxy)pyrazolo[1,5-a]pyridin-3-yl]-6-methoxy-benzamide] |
| 100 to 1000 nM | > 500 nM | COc1cc(-c2cnn3cc(OC(C)(C)CN4CCOCC4)ccc23)cc(OC(F)F)c1C(=O)N[C@@H]1C[C@@H]1F [Cpd 3, 2-(difluoromethoxy)-4-[6-(1,1-dimethyl-2-morpholino-ethoxy)pyrazolo[1,5-a]pyridin-3-yl]-N-[(1R,2S)-2-fluorocyclopropyl]-6-methoxy-benzamide] |

— patent US12606554B2, “Compounds and pharmaceutical compositions thereof for the treatment of diseases” (ONCO3R Therapeutics BV, priority 2019, dated 2026)
